Measurements reported in ChEMBL document CHEMBL5252599, “Euphohelides A-C, ent-Abietane-Type Norditerpene Lactones from Euphorbia helioscopia and Their Anti-Inflammatory Activities” (J Nat Prod, 2023).
Activity calls are given as the source filed them. The calls are words filed in the database; no cut-off is given here.

Legend:
RAW264.7 [1] = test: Antiinflammatory activity in mouse RAW264.7 cells assessed as reduction in LPS-induced NO production pre-incubated for 2 hrs followed by LPS stimulation measured after 24 hrs by Griess method; format: functional, cell-based
RAW264.7 [2] = test: Cytotoxicity against mouse RAW264.7 cells assessed as reduction in cell viability at 100 uM measured after 24 hrs by CCK8 assay; format: toxicity, cell-based; conditions: raw264.7, 24 h
RAW264.7 [3] = test: Antiinflammatory activity in mouse RAW264.7 cells assessed as reduction in LPS-induced TNF-alpha production pre-incubated for 2 hrs followed by LPS stimulation measured after 24 hrs by Griess method; format: functional, cell-based; conditions: dose 5-40 µM, time 26.0 hrs
RAW264.7 [4] = test: Antiinflammatory activity in mouse RAW264.7 cells assessed as reduction in LPS-induced IL-6 production pre-incubated for 2 hrs followed by LPS stimulation measured after 24 hrs by Griess method; format: functional, cell-based; conditions: dose 5-40 µM, time 26.0 hrs
RAW264.7 [5] = test: Antiinflammatory activity against mouse RAW264.7 cells assessed as inhibition of LPS-induced iNOS expression at 10 uM pre-incubated for 2 hrs followed by LPS stimulation measured after 24 hrs by western blot analysis; format: functional, cell-based; conditions: time 26.0 hrs
RAW264.7 [6] = test: Antiinflammatory activity against mouse RAW264.7 cells assessed as inhibition of LPS-induced NF-kappaB/p65 expression at 10 to 40 uM pre-incubated for 2 hrs followed by LPS stimulation measured after 24 hrs by western blot analysis; format: functional, cell-based; conditions: dose 10-40 µM, time 26.0 hrs

Question: Which results are given for CC1=C2C=C3CC[C@@H]4C(C)(C)[C@H](O)C(=O)C[C@@]4(C)[C@@H]3C[C@H]2OC1=O?
Answer: IC50 (RAW264.7 [1]): 33.8 µM; Activity (RAW264.7 [2]): Non-Toxic

Question: With CC1=C2C=C3CC[C@@H]4C(C)(C)C(=O)C(O)=C[C@@]4(C)[C@@H]3C[C@H]2OC1=O as the compound, how does the Activity (RAW264.7 [2]) read?
Answer: Its Activity is “Non-Toxic”.

Question: For CC1=C2C=C3CC[C@@H]4C(C)(C)C(=O)CC[C@@]4(C)[C@]3(O)C[C@H]2OC1=O, which Activity (RAW264.7 [2]) is on record?
Answer: The Activity was “Non-Toxic”.

Question: CC1=C2C=C3CC[C@@H]4C(C)(C)C(=O)[C@H](O)[C@@]4(C)[C@@H]3C[C@H]2OC1=O was tested. Which IC50 (RAW264.7 [1]) did it give?
Answer: The IC50 was 33 µM.

Question: And the Activity (RAW264.7 [2])?
Answer: Its Activity is “Non-Toxic”.

Question: What about the Activity (RAW264.7 [3]) of the same compound?
Answer: Its Activity is “Dose-Dependent Effect”.

Question: What about the Activity (RAW264.7 [4]) of the same compound?
Answer: The Activity was “Dose-Dependent Effect”.

Question: And the Activity (RAW264.7 [5])?
Answer: The Activity was “Active”.

Question: And the Activity (RAW264.7 [6])?
Answer: The Activity was “Active”.

Question: For CC1=C2C=C3CC[C@@H]4C(C)(C)OC(=O)C[C@@]4(C)[C@@H]3C[C@H]2OC1=O, which Activity (RAW264.7 [2]) is on record?
Answer: The Activity was “Non-Toxic”.

Question: How did the Activity (RAW264.7 [2]) turn out when CC1=C2C(=O)C3=C(C[C@H]2OC1=O)[C@]1(C)CC[C@@H](O)C(C)(CO)[C@H]1CC3 (some centres not stated) was run?
Answer: Its Activity is “Non-Toxic”.

Question: For CC1=C2C=C3CC[C@@H]4C(C)(C)[C@H](O)CC[C@@]4(C)[C@@H]3C[C@H]2OC1=O [HELIOSCOPINOLIDE A], which Activity (RAW264.7 [2]) is on record?
Answer: The Activity was “Non-Toxic”.

Question: Which Activity (RAW264.7 [2]) does the source give for CC1=C2C=C3CC[C@@H]4C(C)(C)[C@H](O)[C@H](O)C[C@@]4(C)[C@@H]3C[C@H]2OC1=O here?
Answer: The Activity was “Non-Toxic”.

Question: CC1=C2C=C3CC[C@@H]4C(C)(C)[C@@H](O)CC[C@@]4(C)[C@@H]3C[C@H]2OC1=O [HELIOSCOPINOLIDE B] was tested. Which Activity (RAW264.7 [2]) did it give?
Answer: Its Activity is “Non-Toxic”.

Question: With CC1=C2C=C3CC[C@@H]4C(C)(C)OC(=O)[C@@]4(C)[C@@H]3C[C@H]2OC1=O as the compound, how does the Activity (RAW264.7 [2]) read?
Answer: The Activity was “Non-Toxic”.

Question: For CC1=C2C=C3CC[C@@H]4C(C)(C)[C@@H](O)CC[C@@]4(C)[C@]3(O)C[C@H]2OC1=O, which Activity (RAW264.7 [2]) is on record?
Answer: The Activity was “Non-Toxic”.
